Reference: the supplement of paper PMC8960247
Where a name gives a salt, the structure may show the parent alone. ± gives the standard error.

How the values were obtained:
[1] = test system: 621-102 (TSC2-deficient); assay: relative viability vs DMSO; higher = less cytotoxic; conditions: serum: 10% FBS, 72 h
[2] = test system: 621-103 (TSC2-rescued); assay: as above; conditions: serum: 10% FBS, 72 h
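Also: immortalized renal angiomyolipoma cells stably carrying empty vector or TSC2, dosed in 384-well plates in DMEM, viability normalized to vehicle-treated wells within each plate.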

Row | Structure (SMILES) | relative viability ([1]; 0.0001 µM) [%] | relative viability ([1]; 0.001 µM) [%] | relative viability ([1]; 0.01 µM) [%] | relative viability ([1]; 0.1 µM) [%] | relative viability ([1]; 1 µM) [%] | relative viability ([1]; 10 µM) [%] | relative viability ([2]; 0.0001 µM) [%] | relative viability ([2]; 0.001 µM) [%] | relative viability ([2]; 0.01 µM) [%] | relative viability ([2]; 0.1 µM) [%] | relative viability ([2]; 1 µM) [%] | relative viability ([2]; 10 µM) [%]
1 | CC(C)(C)c1cc(C(C)(C)C)c(NC(=O)c2c[nH]c3ccccc3c2=O)cc1O [VX-770] | 97.8 ± 4.5 | 104 ± 5.4 | 116 ± 2.3 | 119 ± 3.2 | 111 ± 3.6 | 59.3 ± 16 | 101 ± 4.3 | 117 ± 6.1 | 114 ± 4.1 | 110 ± 3.3 | 112 ± 2.9 | 32.3 ± 8.3
2 | CCCCC(=O)N(Cc1ccc(-c2ccccc2-c2nnn[nH]2)cc1)[C@H](C(=O)O)C(C)C [Valsartan] | 85.7 ± 5 | 113 ± 4.4 | 117.3 ± 1 | 117 ± 5.9 | 107 ± 1.1 | 104 ± 1.3 | 101 ± 3.4 | 118.1 ± 0.48 | 115 ± 1.9 | 114 ± 6.2 | 110.2 ± 0.73 | 115 ± 2.4
3 | COc1cc2/c(=N/c3ccc(Br)cc3F)nc[nH]c2cc1OCC1CCN(C)CC1 [Vandetanib] | 94.4 ± 4.3 | 101 ± 3.8 | 109 ± 3.6 | 115 ± 1.7 | 102 ± 1.1 | 33.9 ± 2.9 | 102 ± 2.5 | 99.63 ± 0.8 | 98.84 ± 0.35 | 97.74 ± 0.94 | 98.3 ± 0.93 | 11.4 ± 1.8
4 | CCCc1nc(C)c2c(=O)nc(-c3cc(S(=O)(=O)N4CCN(CC)CC4)ccc3OCC)[nH]n12 [Vardenafil (Vivanza)] | 103 ± 2.4 | 104 ± 1.2 | 104 ± 3.8 | 104.8 ± 0.49 | 96.25 ± 0.9 | 97.2 ± 1.1 | 101 ± 2.4 | 103.3 ± 0.7 | 105 ± 1.5 | 104 ± 1.1 | 98.5 ± 4.4 | 98.6 ± 1.7
5 | Clc1ccc(Nc2nnc(Cc3ccncc3)c3ccccc23)cc1 [Vatalanib] | 94.7 ± 6.8 | 102 ± 9.1 | 115 ± 1.4 | 108 ± 1.8 | 110 ± 2.7 | 117.2 ± 0.94 | 104 ± 1.1 | 106 ± 2 | 106 ± 2.4 | 105 ± 1.4 | 103 ± 2.8 | 110.66 ± 0.097
6 | COc1ccc(C(CN(C)C)C2(O)CCCCC2)cc1 (stereo unspecified) [Venlafaxine HCl] | 74.8 ± 0.85 | 101 ± 2.7 | 96.3 ± 9.2 | 107 ± 5.2 | 91.33 ± 0.33 | 91.6 ± 2.6 | 85.8 ± 1.9 | 109.5 ± 0.37 | 101 ± 4.2 | 99.6 ± 1.8 | 96.1 ± 5 | 90.61 ± 0.47
7 | COC[C@@H](c1ccc(C(F)(F)F)cc1)N1CCN(C2(C)CCN(C(=O)c3c(C)ncnc3C)CC2)C[C@@H]1C [Vicriviroc Malate] | 100.4 ± 0.12 | 106 ± 2.8 | 113 ± 2.9 | 108 ± 3.2 | 100 ± 1.5 | 100.24 ± 0.061 | 102 ± 3.4 | 99.95 ± 0.79 | 101 ± 2.1 | 99.04 ± 0.74 | 96.3 ± 1.4 | 97.62 ± 0.55
8 | CC[C@]1(O)C[C@H]2CN(CCc3c([nH]c4ccccc34)[C@@](C(=O)OC)(c3cc4c(cc3OC)N(C=O)[C@H]3[C@@](O)(C(=O)OC)[C@H](OC(C)=O)[C@]5(CC)C=CCN6CC[C@]43[C@@H]65)C2)C1 [Vincristine Sulfate] | 42 ± 1.8 | 37.1 ± 4.2 | 41.7 ± 0.87 | 38.6 ± 0.59 | 37 ± 0.55 | 33.5 ± 1.3 | 48.3 ± 0.14 | 38 ± 0.93 | 33.5 ± 0.55 | 30.4 ± 0.59 | 27.1 ± 1.3 | 21.9 ± 0.84
